According to PubChem BioAssay AID330 (DTP/NCI, 2004):
“And” between values parts separate entries of the source, which are not always exact repeats. Identical values can stand only once. Inconclusive results and toxic doses are left out.

System: P388 leukemia ip, CD2F1 mice, survival T/C
Assay: NCI In Vivo Anticancer Drug Screen. Data for tumor model P388 Leukemia (intraperitoneal) in CD2F1 (CDF1) mice
Conditions: endpoint: median survival time, higher = longer survival
Summary of the method: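 Mice carrying the transplanted tumor received test compound or vehicle. Survival was recorded in each group, and the value is the treated-group measurement divided by that of the vehicle-treated control group.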

[1] = dose: 100.0 mg/kg/injection, schedule: Q01DX001 (ip), vehicle: saline with Tween-80
[2] = dose: 200.0 mg/kg/injection, schedule: Q01DX001 (ip), vehicle: saline with Tween-80
[3] = dose: 50.0 mg/kg/injection, schedule: Q01DX005 (ip), vehicle: Klucel (hydroxypropylcellulose) (HPC)
[4] = dose: 100.0 mg/kg/injection, schedule: Q01DX005 (ip), vehicle: Klucel (hydroxypropylcellulose) (HPC)
[5] = dose: 200.0 mg/kg/injection, schedule: Q01DX005 (ip), vehicle: Klucel (hydroxypropylcellulose) (HPC)
[6] = dose: 60.0 mg/kg/injection, schedule: Q01DX005 (ip), vehicle: saline
[7] = dose: 120.0 mg/kg/injection, schedule: Q01DX005 (ip), vehicle: saline
[8] = dose: 200.0 mg/kg/injection, schedule: Q01DX009 (ip), vehicle: sodium bicarbonate
[9] = dose: 400.0 mg/kg/injection, schedule: Q01DX009 (ip), vehicle: sodium bicarbonate
[10] = dose: 100.0 mg/kg/injection, schedule: Q04DX003 (ip), vehicle: saline
[11] = dose: 200.0 mg/kg/injection, schedule: Q04DX003 (ip), vehicle: saline
[12] = dose: 60.0 mg/kg/injection, schedule: Q01DX005 (ip), vehicle: saline with Tween-80
[13] = dose: 120.0 mg/kg/injection, schedule: Q01DX005 (ip), vehicle: saline with Tween-80
[14] = dose: 50.0 mg/kg/injection, schedule: Q01DX009 (ip), vehicle: Klucel (hydroxypropylcellulose) (HPC)
[15] = dose: 100.0 mg/kg/injection, schedule: Q01DX009 (ip), vehicle: Klucel (hydroxypropylcellulose) (HPC)
[16] = dose: 200.0 mg/kg/injection, schedule: Q01DX009 (ip), vehicle: Klucel (hydroxypropylcellulose) (HPC)
[17] = dose: 400.0 mg/kg/injection, schedule: Q04DX003 (ip), vehicle: saline

In the case of COc1cccc2c1C(=O)c1c(O)c3c(c(O)c1C2=O)C[C@@](O)(/C(C)=N/NS(C)(=O)=O)C[C@@H]3OC1CC(N)C(O)C(C)O1 (stereo partly drawn), the T/C (dose: 3.13 mg/kg/injection, schedule: Q01DX009 (ip), vehicle: water) is reported as 157 % of control, the T/C (dose: 6.25 mg/kg/injection, schedule: Q01DX009 (ip), vehicle: water) is reported as 164 % of control and 166 % of control and the T/C (dose: 12.5 mg/kg/injection, schedule: Q01DX009 (ip), vehicle: water) is reported as 183 % of control and 187 % of control. For the same compound, the T/C (dose: 25.0 mg/kg/injection, schedule: Q01DX009 (ip), vehicle: saline) was 166 % of control, the T/C (dose: 25.0 mg/kg/injection, schedule: Q01DX009 (ip), vehicle: water) was 117 % of control and 201 % of control and the T/C (dose: 50.0 mg/kg/injection, schedule: Q01DX009 (ip), vehicle: saline) was 193 % of control. For the same compound, the T/C (dose: 50.0 mg/kg/injection, schedule: Q01DX009 (ip), vehicle: water) was 99 % of control, the T/C (dose: 100.0 mg/kg/injection, schedule: Q01DX009 (ip), vehicle: saline) was 283 % of control and the T/C (dose: 200.0 mg/kg/injection, schedule: Q01DX009 (ip), vehicle: saline) was 108 % of control.
Cc1cccc(N2CC3CC4C=CC3(C2)O4)c1 (stereo not drawn) was tested, and the T/C (dose: 60.0 mg/kg/injection, schedule: Q01DX005 (ip), vehicle: Klucel (hydroxypropylcellulose) (HPC)) was 96 % of control, the T/C (dose: 120.0 mg/kg/injection, schedule: Q01DX005 (ip), vehicle: Klucel (hydroxypropylcellulose) (HPC)) was 96 % of control and the T/C (dose: 240.0 mg/kg/injection, schedule: Q01DX005 (ip), vehicle: Klucel (hydroxypropylcellulose) (HPC)) was 96 % of control.
With CCCCCCCCCCCCCCCCCC[N+]1(CCC(C)C)CCSCC1 the T/C [1] was 88 % of control and the T/C [2] was 97 % of control.
With Brc1nsc(SSc2nc(Br)ns2)n1 the T/C [3] was 103 % of control, the T/C [4] was 103 % of control and the T/C [5] was 102 % of control.
In the case of O=C(O)C(CSC(c1ccccc1)(c1ccccc1)c1ccccc1)NC(c1ccccc1)(c1ccccc1)c1ccccc1 (stereo not drawn), the T/C (dose: 12.5 mg/kg/injection, schedule: Q01DX009 (ip), vehicle: other) is reported as 93 % of control, the T/C (dose: 25.0 mg/kg/injection, schedule: Q01DX009 (ip), vehicle: other) is reported as 94 % of control and the T/C (dose: 50.0 mg/kg/injection, schedule: Q01DX009 (ip), vehicle: other) is reported as 93 % of control. For the same compound, the T/C (dose: 100.0 mg/kg/injection, schedule: Q01DX009 (ip), vehicle: other) was 98 % of control.
With COc1cc(C(=O)n2c(=O)oc(=O)c3cc([N+](=O)[O-])ccc32)cc(OC)c1OC the T/C [6] was 101 % of control, the T/C [7] was 94 % of control and the T/C (dose: 240.0 mg/kg/injection, schedule: Q01DX005 (ip), vehicle: saline) was 89 % of control.
In the case of CCOC(=O)CCCCCNC(=O)N1c2c(nc(N)[nH]c2=O)NCC1CNc1ccc(C(=O)NC(CCC(=O)O)C(=O)O)cc1 (stereo not drawn), the T/C (dose: 100.0 mg/kg/injection, schedule: Q01DX009 (ip), vehicle: sodium bicarbonate) is reported as 97 % of control, the T/C [8] is reported as 91 % of control and the T/C [9] is reported as 97 % of control.
With CC([NH-])C[NH-].O=C(O)CC(=O)O.[Pt+2] the T/C (dose: 25.0 mg/kg/injection, schedule: Q04DX002 (ip), vehicle: saline with Tween-80) was 153 % of control and 158 % of control and the T/C (dose: 50.0 mg/kg/injection, schedule: Q04DX002 (ip), vehicle: saline with Tween-80) was 179 % of control and 183 % of control.
c1ccc2nc3c(ccc4ccccc43)cc2c1 was tested, and the T/C (dose: 50.0 mg/kg/injection, schedule: Q04DX003 (ip), vehicle: olive oil, sesame oil, peanut oil) was 101 % of control, the T/C (dose: 91.0 mg/kg/injection, schedule: Q04DX003 (ip), vehicle: saline with Tween-80) was 104 % of control and the T/C (dose: 100.0 mg/kg/injection, schedule: Q04DX003 (ip), vehicle: olive oil, sesame oil, peanut oil) was 103 % of control. The T/C (dose: 182.0 mg/kg/injection, schedule: Q04DX003 (ip), vehicle: saline with Tween-80) was 101 % of control, the T/C (dose: 200.0 mg/kg/injection, schedule: Q04DX003 (ip), vehicle: olive oil, sesame oil, peanut oil) was 103 % of control and the T/C (dose: 364.0 mg/kg/injection, schedule: Q04DX003 (ip), vehicle: saline with Tween-80) was 99 % of control. The T/C (dose: 400.0 mg/kg/injection, schedule: Q04DX003 (ip), vehicle: olive oil, sesame oil, peanut oil) was 105 % of control.
For CCN(CC)CCCNC(c1ccc(OC)c(OC)c1)C(Cl)(Cl)Cl (stereo not drawn), the T/C [6] was 94 % of control and the T/C [7] was 101 % of control.
CCCCCNC(=O)CCC(NC(=O)c1ccc(N(C)Cc2cnc3nc(N)nc(N)c3n2)cc1)C(=O)O (stereo not drawn) was tested, and the T/C [8] was 155 % of control and the T/C [9] was 91 % of control.
NCC(N)Cn1ccnc1 (stereo not drawn) was tested, and the T/C (dose: 50.0 mg/kg/injection, schedule: Q04DX003 (ip), vehicle: saline) was 93 % of control, the T/C [10] was 94 % of control and the T/C [11] was 95 % of control.
With CNC(=O)OCCC(OC(=O)NC)C1CCC2C3CC=C4CC(O)CCC4(C)C3CCC12C (stereo not drawn) the T/C [3] was 100 % of control, the T/C [4] was 102 % of control and the T/C [5] was 97 % of control.
For O=c1c2ccccc2ncn1-c1ccc(O)c(CN(CCCl)CCCl)c1, the T/C [1] was 101 % of control, the T/C [2] was 97 % of control and the T/C (dose: 400.0 mg/kg/injection, schedule: Q01DX001 (ip), vehicle: saline with Tween-80) was 93 % of control.
With CC12CCC(CC1=O)C2(C)CC#N (stereo not drawn) the T/C (dose: 7.5 mg/kg/injection, schedule: Q01DX005 (ip), vehicle: saline) was 101 % of control and the T/C (dose: 15.0 mg/kg/injection, schedule: Q01DX005 (ip), vehicle: saline) was 100 % of control.
For Cn1c(=S)[nH]c2sc3c(c2c1=O)CCCCC3, the T/C [12] was 101 % of control, the T/C [13] was 97 % of control and the T/C (dose: 240.0 mg/kg/injection, schedule: Q01DX005 (ip), vehicle: saline with Tween-80) was 90 % of control.
With CC1(C)Cc2oc(=Nc3ccccc3)n(-c3ccccc3)c(=O)c2C1 the T/C [14] was 105 % of control, the T/C [15] was 114 % of control and the T/C [16] was 102 % of control.
For NN1C(=O)C2C3C=CC(C4CC34)C2C1=O (stereo not drawn), the T/C (dose: 6.25 mg/kg/injection, schedule: Q01DX009 (ip), vehicle: Klucel (hydroxypropylcellulose) (HPC)) was 100 % of control and the T/C (dose: 12.5 mg/kg/injection, schedule: Q01DX009 (ip), vehicle: Klucel (hydroxypropylcellulose) (HPC)) was 110 % of control.
For CCOC(=O)CC1(C)C(=O)CCCC1=O, the T/C [10] was 101 % of control, the T/C [11] was 100 % of control and the T/C [17] was 100 % of control.
With COc1ccc(CCNC2=CNCC2)cc1OC the T/C (dose: 50.0 mg/kg/injection, schedule: Q01DX005 (ip), vehicle: saline) was 101 % of control, the T/C (dose: 100.0 mg/kg/injection, schedule: Q01DX005 (ip), vehicle: saline) was 98 % of control and the T/C (dose: 200.0 mg/kg/injection, schedule: Q01DX005 (ip), vehicle: saline) was 95 % of control.
COc1cc2c(cc1C)C1=C(C)C(=O)OC1[C@@H](O)[C@@H]2C (stereo partly drawn) was tested, and the T/C (dose: 2.25 mg/kg/injection, schedule: Q01DX005 (ip), vehicle: Klucel (hydroxypropylcellulose) (HPC)) was 104 % of control, the T/C (dose: 4.5 mg/kg/injection, schedule: Q01DX005 (ip), vehicle: Klucel (hydroxypropylcellulose) (HPC)) was 101 % of control and the T/C (dose: 9.0 mg/kg/injection, schedule: Q01DX005 (ip), vehicle: Klucel (hydroxypropylcellulose) (HPC)) was 101 % of control. For the same compound, the T/C (dose: 18.0 mg/kg/injection, schedule: Q01DX005 (ip), vehicle: Klucel (hydroxypropylcellulose) (HPC)) was 94 % of control.
For O=C1CCCC2=C1C(c1ccccc1)/C(=N/O)O2 (stereo not drawn), the T/C (dose: 50.0 mg/kg/injection, schedule: Q04DX003 (ip), vehicle: Klucel (hydroxypropylcellulose) (HPC)) was 97 % of control, the T/C (dose: 100.0 mg/kg/injection, schedule: Q04DX003 (ip), vehicle: Klucel (hydroxypropylcellulose) (HPC)) was 101 % of control and the T/C (dose: 200.0 mg/kg/injection, schedule: Q04DX003 (ip), vehicle: Klucel (hydroxypropylcellulose) (HPC)) was 100 % of control and 90 % of control.
In the case of COc1cc2oc3c(c(=O)c2c(O)c1/C=C/C(C)C)C(C=C(C)C)Oc1cc(O)ccc1-3 (stereo not drawn), the T/C [14] is reported as 124 % of control, the T/C [15] is reported as 115 % of control and the T/C [16] is reported as 114 % of control.
For CCOC(=O)c1c(O)c(C)c(=O)n2c1[nH]c1cc(C)c(C)cc12, the T/C [12] was 93 % of control and the T/C [13] was 98 % of control.
In the case of C(=C\c1cc2ccc(C3=NCCN3)cc2[nH]1)/c1cc2ccc(C3=NCCN3)cc2[nH]1, the T/C [10] is reported as 162 % of control, the T/C [11] is reported as 162 % of control and the T/C [17] is reported as 271 % of control.
In the case of CCN(CC)c1ccc(Cc2ccc(N(CC)CC)c3cccnc23)c2ncccc12, the T/C [3] is reported as 100 % of control, the T/C [4] is reported as 99 % of control and the T/C [5] is reported as 98 % of control.
